According to ChEMBL document CHEMBL4014279, “Synthesis of novel pyrazolo[3,4-b]quinolinyl acetamide analogs, their evaluation for antimicrobial and anticancer activities, validation by molecular modeling and CoMFA analysis” (Eur J Med Chem, 2017):
Values after ≈ are worked out from the molar mass of the structure shown.

Key:
[1] = tested on: Staphylococcus aureus; assay: Antibacterial activity against Staphylococcus aureus MLS16 MTCC 2940 after 24 hrs by well diffusion method; format: functional; details: MLS16 MTCC 2940, 24 h
[2] = tested on: Micrococcus luteus; assay: Antibacterial activity against Micrococcus luteus MTCC 2470 after 24 hrs by well diffusion method; format: functional; details: MTCC 2470, 24 h
[3] = tested on: HepG2; assay: Cytotoxicity against human HepG2 cells after 24 hrs by MTT assay; format: functional, cell-based; details: HepG2, 24 h
[4] = tested on: COLO 205; assay: Cytotoxicity against human COLO205 cells after 24 hrs by MTT assay; format: functional, cell-based; details: COLO 205, 24 h
[5] = tested on: HeLa; assay: Cytotoxicity against human HeLa cells after 24 hrs by MTT assay; format: functional, cell-based
[6] = tested on: A549; assay: Cytotoxicity against human A549 cells after 24 hrs by MTT assay; format: functional, cell-based; details: A549, 24 h
[7] = tested on: Raoultella planticola; assay: Antibacterial activity against Klebsiella planticola MTCC 530 after 24 hrs by well diffusion method; format: functional; details: MTCC 530, 24 h
[8] = tested on: Bacillus subtilis; assay: Antibacterial activity against Bacillus subtilis MTCC 121 after 24 hrs by well diffusion method; format: functional; details: MTCC 121, 24 h
[9] = tested on: Escherichia coli; assay: Antibacterial activity against Escherichia coli MTCC 739 after 24 hrs by well diffusion method; format: functional; details: MTCC 739, 24 h
[10] = tested on: Pseudomonas aeruginosa; assay: Antibacterial activity against Pseudomonas aeruginosa MTCC 2453 after 24 hrs by well diffusion method; format: functional; details: MTCC 2453, 24 h
[11] = tested on: Staphylococcus aureus; assay: Antibacterial activity against Staphylococcus aureus MTCC 96 after 24 hrs by well diffusion method; format: functional; details: MTCC 96, 24 h

`CCCCCCNC(=O)Cn1nc(C(F)(F)F)c2c(C)c3ccccc3nc21` was tested, and the MIC [1] was 7.8 to 125 µg/mL (≈ 19.9 to 319 µM), the MIC [2] was 7.8 to 125 µg/mL (≈ 19.9 to 319 µM) and the IC50 [3] was 19.6 µM. The IC50 [4] was 22.2 µM, the IC50 [5] was 21.7 µM and the IC50 [6] was 20.5 µM. It also gave an MIC [7] of 7.8 to 125 µg/mL (≈ 19.9 to 319 µM), an MIC [8] of 7.8 to 125 µg/mL (≈ 19.9 to 319 µM) and an MIC [9] of 7.8 to 125 µg/mL (≈ 19.9 to 319 µM). It also gave an MIC [10] of 7.8 to 125 µg/mL (≈ 19.9 to 319 µM) and an MIC [11] of 7.8 to 125 µg/mL (≈ 19.9 to 319 µM).

`Cc1nn(CC(=O)Nc2ccc([N+](=O)[O-])cc2)c2nc3ccccc3c(C)c12` was tested, and the MIC [1] was 7.8 to 125 µg/mL (≈ 20.8 to 333 µM), the MIC [2] was 7.8 to 125 µg/mL (≈ 20.8 to 333 µM) and the IC50 [3] was 17.2 µM. The IC50 [4] was 20.1 µM, the IC50 [5] was 18.5 µM and the IC50 [6] was 15.9 µM. The MIC [7] was 7.8 to 125 µg/mL (≈ 20.8 to 333 µM), the MIC [8] was 7.8 to 125 µg/mL (≈ 20.8 to 333 µM) and the MIC [9] was 7.8 to 125 µg/mL (≈ 20.8 to 333 µM). It also gave an MIC [10] of 7.8 to 125 µg/mL (≈ 20.8 to 333 µM) and an MIC [11] of 7.8 to 125 µg/mL (≈ 20.8 to 333 µM).

Molecule `Cc1nn(CC(=O)NCc2ccco2)c2nc3ccccc3c(C)c12` has an MIC [1] of 7.8 to 125 µg/mL (≈ 23.3 to 374 µM), an MIC [2] of 7.8 to 125 µg/mL (≈ 23.3 to 374 µM) and an IC50 [3] of 13.2 µM. The IC50 [4] was 15.6 µM, the IC50 [5] was 14.4 µM and the IC50 [6] was 14.9 µM. It also gave an MIC [7] of 7.8 to 125 µg/mL (≈ 23.3 to 374 µM), an MIC [8] of 7.8 to 125 µg/mL (≈ 23.3 to 374 µM) and an MIC [9] of 7.8 to 125 µg/mL (≈ 23.3 to 374 µM). The MIC [10] was 7.8 to 125 µg/mL (≈ 23.3 to 374 µM) and the MIC [11] was 7.8 to 125 µg/mL (≈ 23.3 to 374 µM).

`Cc1c2ccccc2nc2c1c(C(F)(F)F)nn2CC(=O)NC1CC1` gave an MIC [1] of 7.8 to 125 µg/mL (≈ 22.4 to 359 µM), an MIC [2] of 7.8 to 125 µg/mL (≈ 22.4 to 359 µM) and an IC50 [3] of 18.6 µM. For the same molecule, the IC50 [4] was 22.7 µM, the IC50 [5] was 21 µM and the IC50 [6] was 19.2 µM. It also gave an MIC [7] of 7.8 to 125 µg/mL (≈ 22.4 to 359 µM), an MIC [8] of 7.8 to 125 µg/mL (≈ 22.4 to 359 µM) and an MIC [9] of 7.8 to 125 µg/mL (≈ 22.4 to 359 µM). The MIC [10] was 7.8 to 125 µg/mL (≈ 22.4 to 359 µM) and the MIC [11] was 7.8 to 125 µg/mL (≈ 22.4 to 359 µM).

`CNC(=O)Cn1nc(C(F)(F)F)c2c(C)c3ccccc3nc21` was tested, and the MIC [1] was 7.8 to 125 µg/mL (≈ 24.2 to 388 µM), the MIC [2] was 7.8 to 125 µg/mL (≈ 24.2 to 388 µM) and the IC50 [3] was 18.9 µM. It also gave an IC50 [4] of 12.8 µM, an IC50 [5] of 17.2 µM and an IC50 [6] of 11.3 µM. It also gave an MIC [7] of 7.8 to 125 µg/mL (≈ 24.2 to 388 µM), an MIC [8] of 7.8 to 125 µg/mL (≈ 24.2 to 388 µM) and an MIC [9] of 7.8 to 125 µg/mL (≈ 24.2 to 388 µM). For the same molecule, the MIC [10] was 7.8 to 125 µg/mL (≈ 24.2 to 388 µM) and the MIC [11] was 7.8 to 125 µg/mL (≈ 24.2 to 388 µM).

With `O=C(Cn1nc(C(F)(F)F)c2c(-c3ccccc3)c3ccccc3nc21)N1CCCCC1` the MIC [1] was 7.8 to 125 µg/mL (≈ 17.8 to 285 µM), the MIC [2] was 7.8 to 125 µg/mL (≈ 17.8 to 285 µM) and the IC50 [3] was 30.2 µM. It also gave an IC50 [4] of 19.3 µM, an IC50 [5] of 29.2 µM and an IC50 [6] of 25.6 µM. The MIC [7] was 7.8 to 125 µg/mL (≈ 17.8 to 285 µM), the MIC [8] was 7.8 to 125 µg/mL (≈ 17.8 to 285 µM) and the MIC [9] was 7.8 to 125 µg/mL (≈ 17.8 to 285 µM). The MIC [10] was 7.8 to 125 µg/mL (≈ 17.8 to 285 µM) and the MIC [11] was 7.8 to 125 µg/mL (≈ 17.8 to 285 µM).

In the case of `CNC(=O)Cn1nc(C)c2c(C)c3ccccc3nc21`, the MIC [1] is reported as greater than 125 µg/mL, the MIC [2] is reported as 15.6 µg/mL (≈ 58.1 µM) and the IC50 [3] is reported as 17.9 µM. The IC50 [4] was 16.3 µM, the IC50 [5] was 18.1 µM and the IC50 [6] was 20.2 µM. For the same molecule, the MIC [7] was greater than 125 µg/mL, the MIC [8] was 62.5 µg/mL (≈ 233 µM) and the MIC [9] was greater than 125 µg/mL. It also gave an MIC [10] greater than 125 µg/mL and an MIC [11] greater than 125 µg/mL.

In the case of `O=c1[nH]cc(F)c(=O)[nH]1` [FLUOROURACIL], the IC50 [3] is reported as 1.4 µM, the IC50 [4] is reported as 1.9 µM and the IC50 [5] is reported as 1.4 µM. The IC50 [6] was 1.2 µM.

For `O=C(Cn1nc(C(F)(F)F)c2c(-c3ccccc3)c3ccccc3nc21)N1CCCC1`, the MIC [1] was 7.8 to 125 µg/mL (≈ 18.4 to 295 µM), the MIC [2] was 7.8 to 125 µg/mL (≈ 18.4 to 295 µM) and the IC50 [3] was 33.3 µM. For the same molecule, the IC50 [4] was 25.8 µM, the IC50 [5] was 29.6 µM and the IC50 [6] was 22.5 µM. The MIC [7] was 7.8 to 125 µg/mL (≈ 18.4 to 295 µM), the MIC [8] was 7.8 to 125 µg/mL (≈ 18.4 to 295 µM) and the MIC [9] was 7.8 to 125 µg/mL (≈ 18.4 to 295 µM). The MIC [10] was 7.8 to 125 µg/mL (≈ 18.4 to 295 µM) and the MIC [11] was 7.8 to 125 µg/mL (≈ 18.4 to 295 µM).

With `O=C(Cn1nc(C(F)(F)F)c2c(-c3ccccc3)c3ccccc3nc21)NC1CCCCC1` the MIC [1] was 7.8 to 125 µg/mL (≈ 17.2 to 276 µM), the MIC [2] was 7.8 to 125 µg/mL (≈ 17.2 to 276 µM) and the IC50 [3] was 30.2 µM. The IC50 [4] was 32.1 µM, the IC50 [5] was 29.7 µM and the IC50 [6] was 25.9 µM. It also gave an MIC [7] of 7.8 to 125 µg/mL (≈ 17.2 to 276 µM), an MIC [8] of 7.8 to 125 µg/mL (≈ 17.2 to 276 µM) and an MIC [9] of 7.8 to 125 µg/mL (≈ 17.2 to 276 µM). It also gave an MIC [10] of 7.8 to 125 µg/mL (≈ 17.2 to 276 µM) and an MIC [11] of 7.8 to 125 µg/mL (≈ 17.2 to 276 µM).

`Cc1c2ccccc2nc2c1c(C(F)(F)F)nn2CC(=O)NCc1ccco1` was tested, and the MIC [1] was 7.8 to 125 µg/mL (≈ 20.1 to 322 µM), the MIC [2] was 7.8 to 125 µg/mL (≈ 20.1 to 322 µM) and the IC50 [3] was 48.2 µM. It also gave an IC50 [4] of 29.8 µM, an IC50 [5] of 32.8 µM and an IC50 [6] of 33.9 µM. The MIC [7] was 7.8 to 125 µg/mL (≈ 20.1 to 322 µM), the MIC [8] was 7.8 to 125 µg/mL (≈ 20.1 to 322 µM) and the MIC [9] was 7.8 to 125 µg/mL (≈ 20.1 to 322 µM). It also gave an MIC [10] of 7.8 to 125 µg/mL (≈ 20.1 to 322 µM) and an MIC [11] of 7.8 to 125 µg/mL (≈ 20.1 to 322 µM).

Work on `Cc1c2ccccc2nc2c1c(C(F)(F)F)nn2CC(=O)NC1CCCCC1` yielded an MIC [1] of 7.8 to 125 µg/mL (≈ 20 to 320 µM), an MIC [2] of 7.8 to 125 µg/mL (≈ 20 to 320 µM) and an IC50 [3] of 29.6 µM. The IC50 [4] was 24.5 µM, the IC50 [5] was 23.4 µM and the IC50 [6] was 28.2 µM. It also gave an MIC [7] of 7.8 to 125 µg/mL (≈ 20 to 320 µM), an MIC [8] of 7.8 to 125 µg/mL (≈ 20 to 320 µM) and an MIC [9] of 7.8 to 125 µg/mL (≈ 20 to 320 µM). The MIC [10] was 7.8 to 125 µg/mL (≈ 20 to 320 µM) and the MIC [11] was 7.8 to 125 µg/mL (≈ 20 to 320 µM).
